Experimental data as given in patent publication US11040028B2, “Penicinotam derivative, preparation method and use thereof” (OCEAN UNIVERSITY OF CHINA, priority 2017, dated 2021).

Columns and labels:
Assay type in all cases: cell-based
[1] = system: human embryonic lung fibroblast IMR-90; test: Anti-fibrosis activity test: inhibition of proliferation of human embryonic lung fibroblast IMR-90 (CCK-8)
Outline: (§1)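 Proliferation read by CCK-8 (2 h, A450) after 48 h compound treatment of cells plated at 2×10^4 cells/mL and allowed 24 h attachment, triplicate per concentration. Inhibition rate derived from absorbance relative to untreated blank, with IC50 fitted; pirfenidone as positive control.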

[2] = system: human fibrosarcoma cells HT-1080; test: Anti-fibrosis activity test: inhibition of proliferation of human fibrosarcoma cells HT-1080 (CCK-8); conditions: Homo sapiens, HT-1080, 48 h
Outline: as §1

[3] = system: human lung fibroblasts HFL1; test: Anti-fibrosis activity test: inhibition of proliferation of human lung fibroblasts HFL1 (CCK-8); conditions: Homo sapiens, HFL1, 48 h
Outline: as §1

[4] = system: cardiac fibroblast RAT-iCell-C002; test: Anti-fibrosis activity test: inhibition of proliferation of cardiac fibroblast RAT-iCell-C002 (CCK-8); conditions: Cardiac fibroblast, 48 h
Outline: as §1

[5] = system: human hepatic stellate cells LX-2; test: Anti-fibrosis activity test: inhibition of proliferation of human hepatic stellate cells LX-2 (CCK-8); conditions: Homo sapiens, 48 h
Outline: as §1

NF-κB = test: Immunological activity test: inhibition of NF-κB activity; conditions: initial concentration of 30 μM; a/b isomers given as first/second symbol; read-out: IC50 (μM), inhibitory activity against NF-κB
Outline: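 IC50 values were derived after initial screening of compounds at 30 μM for NF-κB inhibitory activity, with parthenolide serving as the positive control.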

BHK-21 cells = test: Anti-fibrosis activity test: inhibition of BHK-21 cell proliferation (CCK-8); conditions: Mesocricetus auratus, BHK-21, 48 h
Outline: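 BHK-21 cells seeded at 2×10^4 cells/mL, allowed to adhere 24 h at 37° C, 5% CO2, then exposed to compounds at graded concentrations in triplicate for 48 h. CCK-8 added for 2 h and absorbance read at 450 nm; inhibition rate taken as (1−Ai/Ao)×100% and IC50 fitted.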

[6] = system: human dermal fibroblasts CCC-ESF-1; test: Anti-fibrosis activity test: inhibition of proliferation of human dermal fibroblasts CCC-ESF-1 (CCK-8); conditions: Fibroblast
Outline: as §1

[7] = human embryonic lung fibroblast IMR-90, CCK-8, 48 hours
[8] = human fibrosarcoma cells HT-1080, CCK-8, 48 hours
[9] = human lung fibroblasts HFL1, CCK-8, 48 hours
[10] = cardiac fibroblast RAT-iCell-C002, CCK-8, 48 hours
[11] = human hepatic stellate cells LX-2, CCK-8, 48 hours
[12] = CCK-8, 48 hours after administration
[13] = human dermal fibroblasts CCC-ESF-1, CCK-8, 48 hours

Row | SMILES | IC50 [2, 8] | IC50 (NF-κB) | IC50 ([2]; HT-1080 cells, 48 h, CCK-8) | IC50 [1, 7] | IC50 [3, 9] | IC50 [4, 10] | IC50 [5, 11] | IC50 (BHK-21 cells; [12]) | IC50 [6, 13] | IC50 ([1]; Homo sapiens, IMR-90 cells, 48 h, CCK-8) | IC50 ([3]; HFL1 cells, 48 h, CCK-8) | IC50 ([4]; RAT-iCell-C002 cells, CCK-8) | IC50 ([5]; LX-2, 48 h, LX-2 cells, CCK-8) | IC50 (BHK-21 cells; 48 h, CCK-8) | IC50 ([6]; Homo sapiens, CCC-ESF-1 cells, 48 h, CCK-8)
1 | O=C1c2c(n(Cc3cc(C(F)(F)F)cc(C(F)(F)F)c3)c3ccc(F)cc3c2=O)-c2cccn21 [Compound 623a, 4-(3,5-Bis(trifluoromethyl)benzyl)-7-fluoro-9H-pyrrolizino[1,2-b]quinoline-9,10(4H)-dione] | 0.05 to 5 mM | 1 to 10 µM |  | 0.05 to 5 mM | 0.05 to 5 mM | 0.05 to 5 mM | 0.05 to 5 mM | < 0.05 mM | < 0.05 mM |  |  |  |  |  | 
2 | O=C1c2c(nc3ccc(F)cc3c2OCc2cc(C(F)(F)F)cc(C(F)(F)F)c2)-c2cccn21 [Compound 623b, 9-((3,5-bis(trifluoromethyl)benzyl)oxy)-7-fluoro-10H-pyrrolizino[1,2-b]quinolin-10-one] | 0.05 to 5 mM | 1 to 10 µM |  | 0.05 to 5 mM | 0.05 to 5 mM | 0.05 to 5 mM | 0.05 to 5 mM | 0.05 to 5 mM | 0.05 to 5 mM |  |  |  |  |  | 
3 | N#Cc1ccc2c(c1)c(=O)c1c(n2Cc2ccc(C(F)(F)F)cc2)-c2cccn2C1=O [Compound 627a, 9,10-Dioxo-4-(4-(trifluoromethyl)benzyl)-4,10-dihydro-9H-pyrrolizino[1,2-b]quinoline-7-carbonitrile] | 0.05 to 5 mM | 1 to 10 µM |  | 0.05 to 5 mM | 0.05 to 5 mM | 0.05 to 5 mM | 0.05 to 5 mM | < 0.05 mM | 0.05 to 5 mM |  |  |  |  |  | 
4 | N#Cc1ccc2c(c1)c(=O)c1c(n2Cc2ccc(-c3ccccc3)cc2)-c2cccn2C1=O [Compound 628a, 4-([1,1′-Biphenyl]-4-ylmethyl)-9,10-dioxo-4,10-dihydro-9H-pyrrolizino[1,2-b]quinoline-7-carbonitrile] | 0.05 to 5 mM | 1 to 10 µM |  | 0.05 to 5 mM | 5 to 20 mM | 0.05 to 5 mM | 0.05 to 5 mM | 0.05 to 5 mM | 0.05 to 5 mM |  |  |  |  |  | 
5 | N#Cc1ccc2c(c1)c(=O)c1c(n2Cc2ccc(-c3ccccc3C#N)cc2)-c2cccn2C1=O [Compound 629a, 4-((2′-Cyano-[1,1′-biphenyl]-4-yl)methyl)-9,10-dioxo-4,10-dihydro-9H-pyrrolizino[1,2-b]quinoline-7-carbonitrile] | 0.05 to 5 mM | 1 to 10 µM |  | 0.05 to 5 mM | 0.05 to 5 mM | 0.05 to 5 mM | 0.05 to 5 mM | < 0.05 mM | < 0.05 mM |  |  |  |  |  | 
6 | O=C1c2c(n(Cc3cc(C(F)(F)F)cc(C(F)(F)F)c3)c3cc(N4CCNCC4)ccc3c2=O)-c2cccn21 [Compound 631a, 4-(3,5-Bis(trifluoromethyl)benzyl)-6-(piperazin-1-yl)-9H-pyrrolizino[1,2-b]quinoline-9,10(4H)-dione] | 0.05 to 5 mM | 1 to 10 µM |  | 0.05 to 5 mM | 0.05 to 5 mM | 0.05 to 5 mM | 0.05 to 5 mM | 0.05 to 5 mM | 0.05 to 5 mM |  |  |  |  |  | 
7 | Cc1ccc2c(=O)c3c([nH]c2c1)-c1cccn1C3=O [Compound 714a, 6-Methyl-9H-pyrrolizino[1,2-b]quinoline-9,10(4H)-dione] |  | 1 to 10 µM | 0.05 to 5 mM |  |  |  |  |  |  | 0.05 to 5 mM | 0.05 to 5 mM | 0.05 to 5 mM | 0.05 to 5 mM | 0.05 to 5 mM | 0.05 to 5 mM

More lines, main results first:

Row | IC50 [2, 8] | IC50 (NF-κB) | IC50 ([2]; HT-1080 cells, 48 h, CCK-8) | SMILES | IC50 [1, 7] | IC50 [3, 9] | IC50 [4, 10] | IC50 [5, 11] | IC50 (BHK-21 cells; [12]) | IC50 [6, 13] | IC50 ([1]; Homo sapiens, IMR-90 cells, 48 h, CCK-8) | IC50 ([3]; HFL1 cells, 48 h, CCK-8) | IC50 ([4]; RAT-iCell-C002 cells, CCK-8) | IC50 ([5]; LX-2, 48 h, LX-2 cells, CCK-8) | IC50 (BHK-21 cells; 48 h, CCK-8) | IC50 ([6]; Homo sapiens, CCC-ESF-1 cells, 48 h, CCK-8)
8 | 0.05 to 5 mM | 0.1 to 1 µM |  | N#Cc1ccc2c(c1)c(=O)c1c(n2Cc2ccc(F)cc2)-c2cccn2C1=O [Compound 624a, 4-(4-Fluorobenzyl)-9,10-dioxo-4,10-dihydro-9H-pyrrolizino[1,2-b]quinoline-7-carbonitrile] | 0.05 to 5 mM | < 0.05 mM | 0.05 to 5 mM | 5 to 20 mM | < 0.05 mM | 0.05 to 5 mM |  |  |  |  |  | 
9 | 0.05 to 5 mM | 1 to 10 µM |  | N#Cc1ccc2nc3c(c(OCc4ccc(F)cc4)c2c1)C(=O)n1cccc1-3 [Compound 624b, 9-((4-fluorobenzyl)oxy)-10-oxo-10H-pyrrolizino[1,2-b]quinoline-7-carbonitrile] | 0.05 to 5 mM | < 0.05 mM | 0.05 to 5 mM | 5 to 20 mM | 0.05 to 5 mM | 0.05 to 5 mM |  |  |  |  |  | 
10 | 0.05 to 5 mM | 1 to 10 µM |  | N#Cc1ccc2c(c1)c(=O)c1c(n2Cc2ccc(Cl)cc2)-c2cccn2C1=O [Compound 625a, 4-(4-Chlorobenzyl)-9,10-dioxo-4,10-dihydro-9H-pyrrolizino[1,2-b]quinoline-7-carbonitrile] | 0.05 to 5 mM | 0.05 to 5 mM | 0.05 to 5 mM | 0.05 to 5 mM | 0.05 to 5 mM | 0.05 to 5 mM |  |  |  |  |  | 
11 | 0.05 to 5 mM | 1 to 10 µM |  | N#Cc1ccc2nc3c(c(OCc4ccc(Cl)cc4)c2c1)C(=O)n1cccc1-3 [Compound 625b, 9-((4-chlorobenzyl)oxy)-10-oxo-10H-pyrrolizino[1,2-b]quinoline-7-carbonitrile] | 0.05 to 5 mM | 0.05 to 5 mM | 0.05 to 5 mM | 0.05 to 5 mM | 0.05 to 5 mM | 0.05 to 5 mM |  |  |  |  |  | 
12 | 0.05 to 5 mM | 1 to 10 µM |  | N#Cc1ccc(Cn2c3c(c(=O)c4cc(C#N)ccc42)C(=O)n2cccc2-3)cc1 [Compound 626a, 4-(4-Cyanobenzyl)-9,10-dioxo-4,10-dihydro-9H-pyrrolizino[1,2-b]quinoline-7-carbonitrile] | 0.05 to 5 mM | 0.05 to 5 mM | 0.05 to 5 mM | 0.05 to 5 mM | 0.05 to 5 mM | < 0.05 mM |  |  |  |  |  | 
13 | 0.05 to 5 mM | 1 to 10 µM |  | N#Cc1ccc(COc2c3c(nc4ccc(C#N)cc24)-c2cccn2C3=O)cc1 [Compound 626b, 9-((4-cyanobenzyl)oxy)-10-oxo-10H-pyrrolizino[1,2-b]quinoline-7-carbonitrile] | 0.05 to 5 mM | 0.05 to 5 mM | 0.05 to 5 mM | 0.05 to 5 mM | 0.05 to 5 mM | < 0.05 mM |  |  |  |  |  | 
14 | 0.05 to 5 mM | 1 to 10 µM |  | N#Cc1ccc2nc3c(c(OCc4ccc(C(F)(F)F)cc4)c2c1)C(=O)n1cccc1-3 [Compound 627b, 10-oxo-9-((4-(trifluoromethyl)benzyl)oxy)-10H-pyrrolizino[1,2-b]quinoline-7-carbonitrile] | 0.05 to 5 mM | 0.05 to 5 mM | 0.05 to 5 mM | 0.05 to 5 mM | 0.05 to 5 mM | 0.05 to 5 mM |  |  |  |  |  | 
15 | 0.05 to 5 mM | 1 to 10 µM |  | N#Cc1ccc2nc3c(c(OCc4ccc(-c5ccccc5)cc4)c2c1)C(=O)n1cccc1-3 [Compound 628b, 9-([1,1′-biphenyl]-4-ylmethoxy)-10-oxo-10H-pyrrolizino[1,2-b]quinoline-7-carbonitrile] | 0.05 to 5 mM | 0.05 to 5 mM | 0.05 to 5 mM | 0.05 to 5 mM | 0.05 to 5 mM | 0.05 to 5 mM |  |  |  |  |  | 
